The test relates to WEEV replicon. Put plainly: microbe, parasite or virus in culture. Particulars: Western equine encephalitis virus; for activity at 2 µM: read-out: Activity (% control LUC) 2 μM; for activity at 10 µM: read-out: Activity (% control LUC) 10 μM. Format: cell-based, Western equine encephalitis virus.
[1] abbreviates: read-out: Activity (% control LUC) 50 μM.
[2] abbreviates: read-out: 50 μM (% control) Luc.

Read-outs that look alike come from different tables or passages of the source.

By IC50 is commonly meant the midpoint of a concentration-inhibition curve. For the compound `CN(Cc1ccccc1)C(=O)C1CCN(C(=O)c2cc3ccccc3n2Cc2ccc(Cl)cc2)CC1` [CCG 203930, N-benzyl-1-(1-(4-chlorobenzyl)-1H-indole-2-carbonyl)-N-methylpiperidine-4-carboxamide], the activity at 2 µM came out at 110% and the activity at 10 µM stood at 59.5%. The IC50 (read-out: Activity IC50 (μM)) came to 18.6 µM. Also, the activity at 50 µM under setting [1] worked out at 38%.

With `O=C(c1cc2ccccc2n1Cc1ccc(Cl)cc1)N1CCC(C(=O)N2CCN(Cc3cccnc3)CC2)CC1` [CCG 205430, (1-(4-chlorobenzyl)-1H-indol-2-yl)(4-(4-(pyridin-3-ylmethyl)piperazine-1-carbonyl)piperidin-1-yl)methanone], it took 13.1 µM to reach half-maximal inhibition (IC50). The activity at 50 µM under setting [2] was determined as 3.55%.

In turn, `C[C@H](NCC1CCN(C(=O)c2cc3ccccc3n2Cc2ccc(F)cc2)CC1)c1ccccc1` [CCG 206501, (S)-(1-(4-fluorobenzyl)-1H-indol-2-yl)(4-(((1-phenylethyl)amino)methyl)piperidin-1-yl)methanone] displayed an IC50 of 8.9 µM. Further, the activity at 50 µM under setting [2] worked out at 0%.

For the compound `O=C(c1cc2ccccc2n1Cc1ccc(Cl)cc1)N1CCC(C(=O)N2CCC[C@H]2CO)CC1` [CCG 204021, (S)-(1-(4-chlorobenzyl)-1H-indol-2-yl)(4-(2-(hydroxymethyl)pyrrolidine-1-carbonyl)piperidin-1-yl)methanone], the activity at 2 µM is 87.8% and the activity at 10 µM is 77.9%. Besides, the half-maximal inhibitory concentration (IC50) (read-out: Activity IC50 (μM)) is 32.1 µM. Also, the activity at 50 µM under setting [1] was 21.1%.

Regarding `O=C(c1cc2ccccc2n1Cc1ccc(Cl)cc1)N1CCC(C(=O)N2CCCC2c2ccccc2)CC1` (stereo not shown) [CCG 205473, (1-(4-chlorobenzyl)-1H-indol-2-yl)(4-(2-phenylpyrrolidine-1-carbonyl)piperidin-1-yl)methanone], the activity at 50 µM under setting [2] worked out at 33.9%.

On to `O=C(NCCc1ccncc1)C1CCN(C(=O)c2cccn2Cc2ccc(Cl)cc2)CC1` [CCG 206381, 1-(1-(4-chlorobenzyl)-1H-pyrrole-2-carbonyl)-N-(2-(pyridin-4-yl)ethyl)piperidine-4-carboxamide], for which the IC50 came out at 0.68 µM. Also, the activity at 50 µM under setting [2] is 9.9%.

Compound `CC(NC(=O)C1CCN(C(=O)c2cc3ccccc3n2Cc2ccc(Cl)cc2)CC1)C1Cc2ccccc2C1` (stereo not shown) [CCG 206549, 1-(1-(4-chlorobenzyl)-1H-indole-2-carbonyl)-N-(1-(2,3-dihydro-1H-inden-2-yl)ethyl)piperidine-4-carboxamide] showed an IC50 of 1.7 µM. In addition, the activity at 50 µM under setting [2] is 36.9%.

As for `O=C(NCCc1ccccc1)C1CCN(C(=O)c2cc3ccccc3n2Cc2ccc(Cl)cc2)CC1` [CCG 206397, 1-(1-(4-chlorobenzyl)-1H-indole-2-carbonyl)-N-phenethylpiperidine-4-carboxamide], it took 15.2 µM to reach half-maximal inhibition (IC50). Under setting [2], the activity at 50 µM worked out at 40.2%.

With `CC(CNC(=O)C1CCN(C(=O)c2cc3ccccc3n2Cc2ccc(Cl)cc2)CC1)c1ccncc1` (stereo not shown) [CCG 206580, 1-(1-(4-chlorobenzyl)-1H-indole-2-carbonyl)-N-(2-(pyridin-4-yl)propyl)piperidine-4-carboxamide], the midpoint of inhibition, the IC50, lay at 1.66 µM. For the same compound, under setting [2], the activity at 50 µM was 13.4%.

In the case of `O=C(c1cc2ccccc2n1Cc1ccc(Cl)cc1)N1CCC(C(=O)N2CCC(c3ccccc3)C2)CC1` (stereo not shown) [CCG 205474, (1-(4-chlorobenzyl)-1H-indol-2-yl)(4-(3-phenylpyrrolidine-1-carbonyl)piperidin-1-yl)methanone], under setting [2], the activity at 50 µM was found to be 57.1%.

For the compound `C#CCn1c(C(=O)N2CCC(C(=O)N(C)Cc3ccccc3)CC2)cc2ccccc21` [CCG 206401, N-benzyl-N-methyl-1-(1-(prop-2-yn-1-yl)-1H-indole-2-carbonyl)piperidine-4-carboxamide], the activity at 50 µM under setting [2] was found to be 57.4%.

In turn, `O=C(NCC1COc2cnccc21)C1CCN(C(=O)c2cc3ccccc3n2Cc2ccc(Cl)cc2)CC1` (stereo not shown) [CCG 206581, 1-(1-(4-chlorobenzyl)-1H-indole-2-carbonyl)-N-((2,3-dihydrofuro[2,3-c]pyridin-3-yl)methyl)piperidine-4-carboxamide] came in with a half-inhibitory concentration (IC50) of 3.58 µM. For the same compound, the activity at 50 µM under setting [2] was 8.6%.

In the case of `O=C(c1cc2ccccc2n1Cc1ccc(Cl)cc1)N1CCC(C(=O)N2CCOCC2)CC1` [CCG 204024, (1-(4-chlorobenzyl)-1H-indol-2-yl)(4-(morpholine-4-carbonyl)piperidin-1-yl)methanone], the activity at 2 µM is 74.9% and the activity at 10 µM was 47.4%. In addition, where the note is “read-out: Activity IC50 (μM)”, the IC50 came out at 12.3 µM. The activity at 50 µM under setting [1] came to 8.3%.

On to `O=C(NCCc1cccnc1)C1CCN(C(=O)c2cc3ccccc3n2Cc2ccc(Cl)cc2)CC1` [CCG 205433, 1-(1-(4-chlorobenzyl)-1H-indole-2-carbonyl)-N-(2-(pyridin-3-yl)ethyl)piperidine-4-carboxamide], for which it took 5.34 µM to reach half-maximal inhibition (IC50). Also, the activity at 50 µM under setting [2] turned out to be 1.9%.

`COc1ccc(CCNC(=O)C2CCN(C(=O)c3cc4ccccc4n3Cc3ccc(Cl)cc3)CC2)cc1` [CCG 206398, 1-(1-(4-chlorobenzyl)-1H-indole-2-carbonyl)-N-(4-methoxyphenethyl)piperidine-4-carboxamide] displayed an IC50 of 7.1 µM. In addition, the activity at 50 µM under setting [2] was determined as 12.9%.

For the compound `O=C(NCc1ccncc1)C1CCN(C(=O)c2cc3ccccc3n2Cc2ccc(Cl)cc2)CC1` [CCG 203929, 1-(1-(4-chlorobenzyl)-1H-indole-2-carbonyl)-N-(pyridin-4-ylmethyl)piperidine-4-carboxamide], the activity at 2 µM was found to be 99.5% and the activity at 10 µM came to 51.8%. Further, the IC50 (read-out: Activity IC50 (μM)) is 6.6 µM. Besides, the activity at 50 µM under setting [1] amounted to 36.4%.

The compound `COc1cccc(CCNC(=O)C2CCN(C(=O)c3cc4ccccc4n3Cc3ccc(Cl)cc3)CC2)c1` [CCG 206395, 1-(1-(4-chlorobenzyl)-1H-indole-2-carbonyl)-N-(3-methoxyphenethyl)piperidine-4-carboxamide] displayed an IC50 of 11.7 µM. In addition, under setting [2], the activity at 50 µM came out at 38.4%.

For `CN1CCN(C(=O)C2CCN(C(=O)c3cc4ccccc4n3Cc3ccc(Cl)cc3)CC2)CC1` [CCG 204023, (1-(4-chlorobenzyl)-1H-indol-2-yl)(4-(4-methylpiperazine-1-carbonyl)piperidin-1-yl)methanone], the activity at 2 µM came out at 99% and the activity at 10 µM came out at 67.4%. Also, the IC50 (read-out: Activity IC50 (μM)) amounted to 21.4 µM. Also, under setting [1], the activity at 50 µM worked out at 6%.

In turn, `Cn1ccc(CNC(=O)C2CCN(C(=O)c3cc4ccccc4n3Cc3ccc(Cl)cc3)CC2)n1` [CCG 205454, 1-(1-(4-chlorobenzyl)-1H-indole-2-carbonyl)-N-((1-methyl-1H-pyrazol-3-yl)methyl)piperidine-4-carboxamide] came in with a half-inhibitory concentration (IC50) of 76.9 µM. The activity at 50 µM under setting [2] turned out to be 46.6%.

Take `O=C(c1cc2ccccc2n1Cc1ccc(Cl)cc1)N1CCC(CN2CCCCC2)CC1` [CCG 205476, (1-(4-chlorobenzyl)-1H-indol-2-yl)(4-(piperidin-1-ylmethyl)piperidin-1-yl)methanone]: the midpoint of inhibition, the IC50, lay at 9.8 µM. Further, the activity at 50 µM under setting [2] came out at 6.5%.

As to `COCCn1c(C(=O)N2CCC(C(=O)N(C)Cc3ccccc3)CC2)cc2ccccc21` [CCG 206331, N-benzyl-1-(1-(2-methoxyethyl)-1H-indole-2-carbonyl)-N-methylpiperidine-4-carboxamide], under setting [2], the activity at 50 µM worked out at 74.5%.

For the compound `C[C@@H](NCC1CCN(C(=O)c2cc3ccccc3n2Cc2ccc(F)cc2)CC1)c1ccccc1` [CCG 206499, (R)-(1-(4-fluorobenzyl)-1H-indol-2-yl)(4-(((1-phenylethyl)amino)methyl)piperidin-1-yl)methanone], the activity at 50 µM under setting [2] is 0%.

As to `Cn1cnc(CNC(=O)C2CCN(C(=O)c3cc4ccccc4n3Cc3ccc(Cl)cc3)CC2)c1` [CCG 205455, 1-(1-(4-chlorobenzyl)-1H-indole-2-carbonyl)-N-((1-methyl-1H-imidazol-4-yl)methyl)piperidine-4-carboxamide], the activity at 50 µM under setting [2] amounted to 50.8%.

In turn, `Cc1c(C(=O)N2CCC(C(=O)NCc3ccccc3)CC2)n(Cc2ccc(Cl)cc2)c2ccccc12` [CCG 205431, N-benzyl-1-(1-(4-chlorobenzyl)-3-methyl-1H-indole-2-carbonyl)piperidine-4-carboxamide] returned an IC50 greater than 100 µM. Moreover, the activity at 50 µM under setting [2] worked out at 48.4%.

As for `O=C(c1cc2ccccc2n1Cc1ccc(F)cc1)N1CCN(Cc2ccccc2)CC1` [CCG 203942, (4-benzylpiperazin-1-yl)(1-(4-fluorobenzyl)-1H-indol-2-yl)methanone], the activity at 2 µM was 116% and the activity at 10 µM worked out at 73.8%. Besides, the IC50 (read-out: Activity IC50 (μM)) stood at 12.8 µM. For the same compound, the activity at 50 µM under setting [1] came out at 48.9%.

Consider `O=C(NC1Cc2ccccc2C1)C1CCN(C(=O)c2cc3ccccc3n2Cc2ccc(Cl)cc2)CC1` [CCG 205471, 1-(1-(4-chlorobenzyl)-1H-indole-2-carbonyl)-N-(2,3-dihydro-1H-inden-2-yl)piperidine-4-carboxamide], for which the activity at 50 µM under setting [2] is 60.9%.

Take `O=C(NCC1CCc2ccccc21)C1CCN(C(=O)c2cc3ccccc3n2Cc2ccc(Cl)cc2)CC1` (stereo not shown) [CCG 206550, 1-(1-(4-chlorobenzyl)-1H-indole-2-carbonyl)-N-((2,3-dihydro-1H-inden-1-yl)methyl)piperidine-4-carboxamide]: inhibition was half-maximal at 7.1 µM (IC50). Also, the activity at 50 µM under setting [2] amounted to 47.4%.

As to `CN(Cc1ccccc1)C(=O)C1CCN(C(=O)c2cc3ccccc3n2C)CC1` [CCG 205428, N-benzyl-N-methyl-1-(1-methyl-1H-indole-2-carbonyl)piperidine-4-carboxamide], under setting [2], the activity at 50 µM was determined as 77.2%.

As to `O=C(c1cc2ccccc2n1Cc1ccc(Cl)cc1)N1CCC(C(=O)N2Cc3ccccc3C2)CC1` [CCG 205470, (1-(4-chlorobenzyl)-1H-indol-2-yl)(4-(isoindoline-2-carbonyl)piperidin-1-yl)methanone], the activity at 50 µM under setting [2] turned out to be 51.8%.
